“Also recorded” adds a separate entry of the source.
Experiments:
[1] = test system: HuH7 cells; experiment: MTT assay, proliferation inhibition of hepatocellular-carcinoma cell line HuH7; assay type: cell-based
Description: (§1) The present disclosure carries out experiments to test proliferation inhibition effects of baicalein on hepatocellular-carcinoma cell lines HuH7 and HepG2 respectively, with IC50 values calculated. […] Moreover, the present disclosure establishes a diethylnitrosamine-induced mouse liver cancer model which is then intervened with baicalein.
(§2) Hela, HepG2, and HuH7 cells (from China Center for Type Culture Collection (Wuhan, China)) were cultured at 37° C. with 5% CO2 in Dulbecco's modified Eagle medium (DMEM, Thermo Fisher Scientific) supplemented with 10% fetal bovine serum (Thermo Fisher Scientific) and 1% penicillin-streptomycin (Thermo Fisher Scientific).
(§3) 10^4 cells were added to a 96-well plate. 100 μL of pre-warmed medium was added to each well. After attachment, the cells were starved in a serum-free medium for 24 h, and then transferred to a normal medium containing 100 μM baicalein and cultured for another 24 h. After treatment, the cells were incubated with 100 μL of conventional medium containing 50 μg MTT (Sigma-Aldrich) for 4 h. Finally, purple precipitates were dissolved in 200 μL of DMSO (Sigma-Aldrich), and absorbance at 490 nm was measured by a microplate reader (Bio-Rad).

[2] = test system: HepG2 cells; experiment: MTT assay, proliferation inhibition of hepatocellular-carcinoma cell line HepG2; assay type: cell-based
Description: as §1, §2, §3

[3] = mouse, in vivo
Description: as §1
(§4) All animal operations were carried out based on a protocol approved by the Animal Research Committee of Peking University, China, in accordance with the “Guidelines for Care and Use of Laboratory Animals” (NIH Publication No. 86-23, revised in 1985). All mice (C57BL/6j, Charles River, Beijing, China) were kept in a temperature-controlled barrier facility at Laboratory Animal Center in Peking University (laboratory animal facility approved by AAALAC) with a 12 h light/dark cycle, and had free access to food and water. Only male animals were used Animals were randomly grouped based on weight level. Five mice were selected for each group to meet requirements for statistical significance. A randomised, comparative, and single-blinded test was used. For wild littermates, modeling with diethylnitrosamine was started at 6 weeks of age and maintained for 24 weeks. After 12 weeks of modeling, 400 mg/kg baicalein (40 mg/mL saline) was administered by gavage daily for another 12 weeks, and then liver disease-related symptoms of these mice were analyzed.
(§5) A liver sample cut from a same leaf of each animal was fixed in 4% paraformaldehyde overnight at room temperature, dehydrated with an ethanol gradient, infiltrated with xylene and embedded in paraffin. A paraffin embedded tissue was used to prepare serial sections 5 μm thick for hematoxylin and eosin (H&E) staining.

[4] = test system: diethylnitrosamine-induced hepatocellular carcinoma; conditions: 400 mg/kg by gavage daily for 12 weeks
Description: as §1, §4, §5

[5] = test system: oxidative phosphorylation in HuH7 cells; experiment: Measurement of oxidative phosphorylation and glycolysis in HuH7 cells (Seahorse XF); assay type: cell-based
Description: Based on the above results, effect of baicalein on oxidative phosphorylation needs to be clarified initially. Therefore, effects of different concentrations of baicalein on oxidative phosphorylation are tested at a cellular level. […] Further analysis finds that, baicalein (100 μM) can improve basal respiration value, maximum respiration value and ATP production in oxidative phosphorylation. […] In order to further confirm effect of baicalein on the oxidative phosphorylation, the present disclosure further extracts mitochondria, a main site where the oxidative phosphorylation locates, and tests effect of baicalein concentration gradient and incubation time gradient on oxidative phosphorylation in the mitochondria. […] At this point, the present disclosure discovers a natural activator of the oxidative phosphorylation, the baicalein. […] 1,000 cells or 4 μg mitochondria were added to the well plate provided by the Seahorse detection kit (Agilent, 103275-100). Related measurements were carried out following instructions.

[6] = test system: oxidative phosphorylation in mitochondria; experiment: Measurement of oxidative phosphorylation (ATP production) in mitochondria extracted from HuH7 cells; assay type: biochemical; conditions: concentration gradient and incubation time gradient
Description: Based on the above results, effect of baicalein on oxidative phosphorylation needs to be clarified initially. Therefore, effects of different concentrations of baicalein on oxidative phosphorylation are tested at a cellular level. […] Further analysis finds that, baicalein (100 μM) can improve basal respiration value, maximum respiration value and ATP production in oxidative phosphorylation. […] In order to further confirm effect of baicalein on the oxidative phosphorylation, the present disclosure further extracts mitochondria, a main site where the oxidative phosphorylation locates, and tests effect of baicalein concentration gradient and incubation time gradient on oxidative phosphorylation in the mitochondria. […] At this point, the present disclosure discovers a natural activator of the oxidative phosphorylation, the baicalein. […] Measurement of oxidative phosphorylation with Seahorse XF (Agilent): HuH7 cells, HepG2 cells and mitochondria were prepared. 1,000 cells or 4 μg mitochondria were added to the well plate provided by the Seahorse detection kit (Agilent, 103275-100). Related measurements were carried out following instructions. Measurement of oxidative phosphorylation (ATP production) with QQQ-MS (AB Sciex): mitochondria were extracted from HuH7 cells. A reaction system was prepared according to Table 1 below. 4 μg of mitochondria was added to a 100 μL reaction system. […]

[7] = test system: oxidative phosphorylation in HepG2 cells; experiment: Measurement of oxidative phosphorylation and glycolysis in HepG2 cells (Seahorse XF); assay type: cell-based
Source text: With quantitative proteomics analysis, the present disclosure finds that the natural product baicalein can activate the oxidative phosphorylation. Then, it is necessary to clarify relationship between activation of the oxidative phosphorylation by baicalein and anti-cancer activity thereof. Cancer cells have the “Warburg effect”, that is, cancer cells tend to use glycolysis in replace of the oxidative phosphorylation which normal cells tend to use, so that cancer cells grow at a much faster rate than normal cells. […] The present disclosure verifies this phenomenon in HepG2 and HuH7 cells. […] 1,000 cells or 4 μg mitochondria were added to the well plate provided by the Seahorse detection kit (Agilent, 103275-100). Related measurements were carried out following instructions.

[8] = test system: HuH7 cells; experiment: siRNA knockdown of key enzyme of oxidative phosphorylation, effect on anti-cancer activity (MTT, HuH7); assay type: cell-based
Source text: With quantitative proteomics analysis, the present disclosure finds that the natural product baicalein can activate the oxidative phosphorylation. Then, it is necessary to clarify relationship between activation of the oxidative phosphorylation by baicalein and anti-cancer activity thereof. Cancer cells have the “Warburg effect”, that is, cancer cells tend to use glycolysis in replace of the oxidative phosphorylation which normal cells tend to use, so that cancer cells grow at a much faster rate than normal cells. […] The present disclosure verifies this phenomenon in HepG2 and HuH7 cells. […] (See FIG. 4)
The siRNA constructs listed below were designed and synthesized by GenePharma (Shanghai, China). At a modeling stage before baicalein treatment, interference was performed based on the RNAiMAX (Thermo Fisher Scientific) protocol.
as §3

## O=c1cc(-c2ccccc2)oc2cc(O)c(O)c(O)c12 [baicalein]
[1]
  proliferation inhibition effect: significantly inhibits
[2]
  proliferation inhibition effect: significantly inhibits
[3]
  liver toxicity: no liver toxicity
  weight loss of mice: no weight loss
[4]
  therapeutic effect on mice with hepatocellular carcinoma: significant therapeutic effect
[5]
  glycolysis: inhibits the glycolysis
[5]; baicalein 100 μM
  ATP production in oxidative phosphorylation: can improve
  basal respiration value: can improve
  maximum respiration value: can improve
[5]; different concentrations of baicalein
  level of oxidative phosphorylation: activates the oxidative phosphorylation in a concentration dependent manner; also recorded: increasing level of the oxidative phosphorylation
[6]
  oxidative phosphorylation in the mitochondria: activation of the oxidative phosphorylation in a concentration dependent and time dependent manner
[7]
  glycolysis: inhibits the glycolysis
  level of oxidative phosphorylation: increasing level of the oxidative phosphorylation
[8]
  anti-cancer activity after knockdown of a key enzyme of oxidative phosphorylation: greatly weakened
